Reference: PubChem BioAssay AID224 (DTP/NCI, 2004)
Several values for one entry are separate records, joined by “and”; a condition that tells them apart may be missing. Equal entries are not always repeated. Inconclusive results and toxic doses are left out.

Tested on: P335 leukemia ip, BDF1 mice, survival T/C %
Experiment: NCI In Vivo Anticancer Drug Screen. Data for tumor model P335 Leukemia (intraperitoneal) in B6D2F1 (BDF1) mice
Conditions: endpoint: mean survival time, higher = longer survival
Protocol: The antitumor activity of compounds was measured in mice bearing transplantable tumors. Survival or tumor size were measured and the results are expressed as the measurement made in the treated group (T) divided by the measurement made in the vehicle treated control group (C). The tumor model used in this assay is P335 Leukemia (intraperitoneal) in B6D2F1 (BDF1) mice

[1] = dose: 3.1 mg/kg/injection, schedule: Q01DX Z (ip), vehicle: carboxymethylcellulose (CMC)
[2] = dose: 25.0 mg/kg/injection, schedule: Q01DX Z (ip), vehicle: carboxymethylcellulose (CMC)
[3] = dose: 50.0 mg/kg/injection, schedule: Q01DX Z (ip), vehicle: carboxymethylcellulose (CMC)
[4] = dose: 1.6 mg/kg/injection, schedule: Q01DX Z (ip), vehicle: carboxymethylcellulose (CMC)
[5] = dose: 12.5 mg/kg/injection, schedule: Q01DX Z (ip), vehicle: carboxymethylcellulose (CMC)
[6] = dose: 10.0 mg/kg/injection, schedule: Q01DX Z (ip), vehicle: carboxymethylcellulose (CMC)
[7] = dose: 20.0 mg/kg/injection, schedule: Q01DX Z (ip), vehicle: carboxymethylcellulose (CMC)
[8] = dose: 5.0 mg/kg/injection, schedule: Q01DX Z (ip), vehicle: carboxymethylcellulose (CMC)
[9] = dose: 100.0 mg/kg/injection, schedule: Q01DX Z (ip), vehicle: carboxymethylcellulose (CMC)

## CSc1ncnc2c1ncn2C1OC(CO)C(O)C1O (stereo not given)
[1]
  T/C: 93 % of control
dose: 6.25 mg/kg/injection, schedule: Q01DX Z (ip), vehicle: carboxymethylcellulose (CMC)
  T/C: 110 % of control
[2]
  T/C: 179 % of control
[3]
  T/C: 104 % of control

## CC/C(=C(/CC)c1ccc(O)cc1)c1ccc(O)cc1
dose: 15.6 mg/kg/injection, schedule: Q01DX Z (sc), vehicle: steriod suspending solution
  T/C: 91 % of control

## C1CN1c1nc(N2CC2)nc(N2CC2)n1
dose: 0.9 micrograms/kg/injection, schedule: Q01DX Z (ip), vehicle: saline
  T/C: 87 % of control
dose: 1.9 micrograms/kg/injection, schedule: Q01DX Z (ip), vehicle: saline
  T/C: 90 % of control
dose: 7.8 micrograms/kg/injection, schedule: Q01DX Z (ip), vehicle: saline
  T/C: 90 % of control and 114 % of control

## O=c1[nH]c(=O)n(C2CC(O)C(CO)O2)cc1Br (stereo not given)
dose: 250.0 mg/kg/injection, schedule: Q01DX Z (ip), vehicle: carboxymethylcellulose (CMC)
  T/C: 112 % of control
dose: 500.0 mg/kg/injection, schedule: Q01DX Z (ip), vehicle: carboxymethylcellulose (CMC)
  T/C: 115 % of control
dose: 1000.0 mg/kg/injection, schedule: Q01DX Z (ip), vehicle: carboxymethylcellulose (CMC)
  T/C: 94 % of control and 121 % of control

## CN(C)c1ccc(Nc2c3ccccc3nc3ccccc23)cc1
[4]
  T/C: 112 % of control
[1]
  T/C: 93 % of control
dose: 6.2 mg/kg/injection, schedule: Q01DX Z (ip), vehicle: carboxymethylcellulose (CMC)
  T/C: 96 % of control
[5]
  T/C: 117 % of control

## O=C(Nc1ccc(NC2=NCCN2)cc1)c1ccc(C(=O)Nc2ccc(NC3=NCCN3)cc2)cc1
dose: 4.0 mg/kg/injection, schedule: Q01DX Z (ip), vehicle: saline
  T/C: 175 % of control
dose: 8.0 mg/kg/injection, schedule: Q01DX Z (ip), vehicle: saline
  T/C: 208 % of control
dose: 16.0 mg/kg/injection, schedule: Q01DX Z (ip), vehicle: saline
  T/C: 170 % of control
dose: 32.0 mg/kg/injection, schedule: Q01DX Z (ip), vehicle: saline
  T/C: 91 % of control

## Cn1c(N)nc2nc[nH]c2c1=S
[4]
  T/C: 94 % of control
[1]
  T/C: 94 % of control
dose: 6.3 mg/kg/injection, schedule: Q01DX Z (ip), vehicle: carboxymethylcellulose (CMC)
  T/C: 92 % of control

## C[C@]12C=CC(=O)C=C1CC[C@@H]1[C@@H]2[C@@H](O)C[C@@]2(C)[C@H]1CC[C@]2(O)C(=O)CO
dose: 2.0 mg/kg/injection, schedule: Q01DX Z (sc), vehicle: steriod suspending solution
  T/C: 97 % of control
dose: 4.0 mg/kg/injection, schedule: Q01DX Z (sc), vehicle: steriod suspending solution
  T/C: 103 % of control and 111 % of control
dose: 8.0 mg/kg/injection, schedule: Q01DX Z (sc), vehicle: steriod suspending solution
  T/C: 101 % of control and 117 % of control
dose: 16.0 mg/kg/injection, schedule: Q01DX Z (sc), vehicle: steriod suspending solution
  T/C: 95 % of control and 117 % of control
dose: 32.0 mg/kg/injection, schedule: Q01DX Z (sc), vehicle: steriod suspending solution
  T/C: 95 % of control

## CC1CCOS(=O)O1 (stereo not given)
[6]
  T/C: 91 % of control
[7]
  T/C: 113 % of control
dose: 40.0 mg/kg/injection, schedule: Q01DX Z (ip), vehicle: carboxymethylcellulose (CMC)
  T/C: 117 % of control
dose: 80.0 mg/kg/injection, schedule: Q01DX Z (ip), vehicle: carboxymethylcellulose (CMC)
  T/C: 107 % of control

## CN(C)c1ccc(/C=C\c2ccnc3ccccc23)cc1
dose: 0.8 mg/kg/injection, schedule: Q01DX Z (ip), vehicle: water
  T/C: 100 % of control
dose: 1.6 mg/kg/injection, schedule: Q01DX Z (ip), vehicle: water
  T/C: 98 % of control
dose: 3.1 mg/kg/injection, schedule: Q01DX Z (ip), vehicle: water
  T/C: 102 % of control
dose: 6.2 mg/kg/injection, schedule: Q01DX Z (ip), vehicle: water
  T/C: 109 % of control

## O=c1cn[nH]c(=O)[nH]1
dose: 187.5 mg/kg/injection, schedule: Q01DX Z (ip), vehicle: carboxymethylcellulose (CMC)
  T/C: 88 % of control
dose: 375.0 mg/kg/injection, schedule: Q01DX Z (ip), vehicle: carboxymethylcellulose (CMC)
  T/C: 88 % of control
dose: 750.0 mg/kg/injection, schedule: Q01DX Z (ip), vehicle: carboxymethylcellulose (CMC)
  T/C: 98 % of control

## CCC(=O)O[C@H]1CC[C@H]2[C@@H]3CCC4=CC(=O)CC[C@]4(C)[C@H]3CC[C@]12C
dose: 23.43 mg/kg/injection, schedule: Q01DX Z (sc), vehicle: steriod suspending solution
  T/C: 114 % of control
dose: 60.0 mg/kg/injection, schedule: Q01DX Z (sc), vehicle: steriod suspending solution
  T/C: 106 % of control
dose: 93.75 mg/kg/injection, schedule: Q01DX Z (sc), vehicle: steriod suspending solution
  T/C: 114 % of control
dose: 300.0 mg/kg/injection, schedule: Q01DX Z (sc), vehicle: steriod suspending solution
  T/C: 122 % of control
dose: 375.0 mg/kg/injection, schedule: Q01DX Z (sc), vehicle: steriod suspending solution
  T/C: 107 % of control
dose: 1500.0 mg/kg/injection, schedule: Q01DX Z (sc), vehicle: steriod suspending solution
  T/C: 98 % of control and 113 % of control

## Cn1cnc([N+](=O)[O-])c1Sc1nc(N)nc2nc[nH]c12
dose: 0.25 mg/kg/injection, schedule: Q01DX Z (ip), vehicle: carboxymethylcellulose (CMC)
  T/C: 93 % of control

## NC(Cc1ccc(N(CCCl)CCCl)cc1)C(=O)O (stereo not given)
dose: 2.5 mg/kg/injection, schedule: Q01DX Z (ip), vehicle: carboxymethylcellulose (CMC)
  T/C: 87 % of control
[8]
  T/C: 94 % of control

## CC(CCC(C)OS(C)(=O)=O)OS(C)(=O)=O (stereo not given)
[8]
  T/C: 88 % of control
[6]
  T/C: 90 % of control
[7]
  T/C: 87 % of control

## CCN(CC)C(=S)S
dose: 125.0 mg/kg/injection, schedule: Q01DX Z (ip), vehicle: other
  T/C: 92 % of control
dose: 250.0 mg/kg/injection, schedule: Q01DX Z (ip), vehicle: other
  T/C: 105 % of control
dose: 500.0 mg/kg/injection, schedule: Q01DX Z (ip), vehicle: other
  T/C: 106 % of control
dose: 500.0 mg/kg/injection, schedule: Q01DX Z (ip), vehicle: water
  T/C: 102 % of control
dose: 1000.0 mg/kg/injection, schedule: Q01DX Z (ip), vehicle: other
  T/C: 103 % of control
dose: 1000.0 mg/kg/injection, schedule: Q01DX Z (ip), vehicle: water
  T/C: 120 % of control

## CCCNc1ncnc2[nH]ncc12
dose: 0.62 mg/kg/injection, schedule: Q01DX Z (ip), vehicle: water
  T/C: 95 % of control
dose: 5.0 mg/kg/injection, schedule: Q01DX Z (ip), vehicle: water
  T/C: 94 % of control

## COC12C(COC(N)=O)C3=C(C(=O)C(C)=C(N)C3=O)N1CC1C2N1C (stereo not given)
dose: 0.63 mg/kg/injection, schedule: Q01DX Z (ip), vehicle: carboxymethylcellulose (CMC)
  T/C: 110 % of control
[8]
  T/C: 160 % of control and 168 % of control

## Nc1nc2n[nH]nc2c(=O)[nH]1
dose: 100.0 mg/kg/injection, schedule: Q01DX Z (ip), vehicle: other
  T/C: 115 % of control

## O=C1C(NC(=O)C2CCCCC2)=C(N2CC2)C(=O)C(NC(=O)C2CCCCC2)=C1N1CC1
dose: 150.0 mg/kg/injection, schedule: Q01DX Z (ip), vehicle: carboxymethylcellulose (CMC)
  T/C: 103 % of control
dose: 300.0 mg/kg/injection, schedule: Q01DX Z (ip), vehicle: carboxymethylcellulose (CMC)
  T/C: 101 % of control
dose: 600.0 mg/kg/injection, schedule: Q01DX Z (ip), vehicle: carboxymethylcellulose (CMC)
  T/C: 106 % of control

## CCN(CC)CCNc1ccc(C)c2sc3ccccc3c(=O)c12
dose: 0.78 mg/kg/injection, schedule: Q01DX Z (ip), vehicle: methylcellulose (MC)
  T/C: 89 % of control
dose: 6.25 mg/kg/injection, schedule: Q01DX Z (ip), vehicle: methylcellulose (MC)
  T/C: 92 % of control
dose: 50.0 mg/kg/injection, schedule: Q01DX Z (ip), vehicle: methylcellulose (MC)
  T/C: 89 % of control
dose: 100.0 mg/kg/injection, schedule: Q01DX Z (ip), vehicle: methylcellulose (MC)
  T/C: 93 % of control

## C[C@@H]1C[C@H]2CC[C@H](O2)[C@H](C)C(=O)O[C@@H](C)C[C@@H]2CC[C@@H](O2)[C@@H](C)C(=O)O[C@H](C)C[C@H]2CC[C@H](O2)[C@H](C)C(=O)O[C@@H](C)C[C@@H]2CC[C@@H](O2)[C@@H](C)C(=O)O1
[2]
  T/C: 96 % of control
[3]
  T/C: 88 % of control
[9]
  T/C: 86 % of control

## CCOC(N)=O
dose: 63.0 mg/kg/injection, schedule: Q01DX Z (ip), vehicle: saline
  T/C: 95 % of control
dose: 93.75 mg/kg/injection, schedule: Q01DX Z (ip), vehicle: saline
  T/C: 109 % of control
dose: 125.0 mg/kg/injection, schedule: Q01DX Z (ip), vehicle: saline
  T/C: 108 % of control
dose: 250.0 mg/kg/injection, schedule: Q01DX Z (ip), vehicle: saline
  T/C: 95 % of control
dose: 500.0 mg/kg/injection, schedule: Q01DX Z (ip), vehicle: saline
  T/C: 112 % of control

## C[N+](C)(C)c1ncnc2nc[nH]c12
[5]
  T/C: 107 % of control
[2]
  T/C: 94 % of control
[3]
  T/C: 110 % of control
[9]
  T/C: 87 % of control and 107 % of control
